Data reported in patent US6420375B1, “Fused ring compounds, process for producing the same and use thereof” (Takeda Chemical Industries, Ltd., priority 1997, dated 2002).

Target: T1, rat steroid C17-20-lyase (Rattus norvegicus, UniProt P11715)
T1 construct: testicular microsomes were prepared by a series of centrifugation; from tissue; host or cells: testicular microsomes from 13-week old male SD rats
T1 sequence (P11715 1-507): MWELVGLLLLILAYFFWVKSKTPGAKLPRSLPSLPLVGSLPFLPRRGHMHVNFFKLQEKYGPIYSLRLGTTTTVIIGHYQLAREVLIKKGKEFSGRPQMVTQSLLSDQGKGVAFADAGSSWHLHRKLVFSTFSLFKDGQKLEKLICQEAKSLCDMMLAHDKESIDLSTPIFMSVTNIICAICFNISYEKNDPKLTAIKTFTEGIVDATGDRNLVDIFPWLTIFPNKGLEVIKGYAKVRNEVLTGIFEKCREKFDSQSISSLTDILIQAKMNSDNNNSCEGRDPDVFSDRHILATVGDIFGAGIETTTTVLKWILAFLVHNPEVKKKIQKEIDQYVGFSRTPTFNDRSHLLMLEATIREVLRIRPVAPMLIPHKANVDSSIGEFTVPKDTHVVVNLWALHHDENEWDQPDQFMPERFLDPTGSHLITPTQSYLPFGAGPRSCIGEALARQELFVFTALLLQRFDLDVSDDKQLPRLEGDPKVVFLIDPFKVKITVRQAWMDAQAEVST
Assay: Assay of inhibitory activity on rat steroid C17-20-lyase in vitro
Format: biochemical
Settings: testicular microsomes of male SD rats; 10 nM [1,2-3H]-17α-hydroxyprogesterone, NADPH; 7 min at 37° C.; concentration reducing products (testosterone and androstenedione) by 50%
Method: Assay of inhibitory activity on rat steroid C17-20-lyase in vitro
Inhibitory activity was determined according to the method described in The Prostate, vol.26, 140-150(1995) with some modifications.
Testes excised from 13-week old, male SD rats were homogenized, and testicular microsomes were prepared by a series of centrifugation. The microsome protein (7 μg/10 μl) was added to 10 μl of 100 mM phosphate buffer (pH 7.4) in which 10 nM (final concentration) [1,2-^3H]-17α-hydroxyprogesterone, NADPH, and test compounds were dissolved. The reaction mixture was incubated for 7 min at 37° C., terminated by addition of 40 μl of Ethyl acetate, and briefly centrifuged. The substrate and the products (testosterone and androstenedione) in the upper phase were separated by silica gel thin layer chromatography. Detection of the spots and measurement of the radioactivity were performed by a BAS 2000 Bioimage analyzer. The concentration of the test compounds necessary to reduce the concentration of the products by 50% (The concentration in the control group in which no test compound was added was taken as 100%) was calculated, and shown in Table 1.

| SMILES | IC50 |
| --- | --- |
| C(=C\c1ccc2ccccc2c1)/Cn1ccnc1 | 0.026 µM |
| C/C(=C\Cn1ccnc1)c1ccc2ccccc2c1 | 0.013 µM |
| C/C(=C\c1ccc2ccccc2c1)Cn1ccnc1 | 0.02 µM |
| C(=C\c1ccc2ccccc2c1)/Cc1cccnc1 | 0.1 µM |
| C(=C\c1ccc2c(c1)CCCC2)/c1ccncc1 | 0.19 µM |
| C/C(=C\Cn1ccnc1)c1ccc2c(c1)CCCC2 | 0.028 µM |
